Source: ChEMBL document CHEMBL4152250, “Antibacterial and anti-TB tat-peptidomimetics with improved efficacy and half-life” (Eur J Med Chem, 2018)
≈ marks a conversion by molar mass, not a printed value. Calls of active or inactive are those of the source. The calls are words filed in the database; no cut-off is given here. Numbered stars: 1 amine (or outer) side, 2 acyl side, 3 side chain; on linkers, the order of the positions; unused ones are H or OH. Square brackets hold non-standard residues; d marks the D form. Peptide text beside a SMILES is read from it. Pro(N-(CH2)3Gua,cis-4-NH-) = N=C(N)NCCCN1C[C@@H](N[*:1])C[C@H]1C(=O)[*:2]; βAla = NCCC(=O)O

Experiments:
Escherichia coli [1] = assay: Antibacterial activity against Escherichia coli NCIM 2688 after 8 hrs by serial dilution method; type: functional, organism-based; conditions: NCIM 2688, 8 h
Pseudomonas aeruginosa = assay: Antibacterial activity against Pseudomonas aeruginosa NCIM 2036 after 8 hrs by serial dilution method; type: functional, organism-based; conditions: NCIM 2036, 8 h
Enterobacter sp. = assay: Antibacterial activity against Enterobacter sp. NCIM 5392 after 8 hrs by serial dilution method; type: functional, organism-based; conditions: NCIM 5392, 8 h
Bacillus subtilis = assay: Antibacterial activity against Bacillus subtilis NCIM 2079 after 12 hrs by serial dilution method; type: functional, organism-based; conditions: NCIM 2079, 12 h
Staphylococcus aureus [2] = assay: Antibacterial activity against Staphylococcus aureus NCIM 2010 after 12 hrs by serial dilution method; type: functional, organism-based; conditions: NCIM 2010, 12 h
[3] = system: Staphylococcus epidermidis; assay: Antibacterial activity against Staphylococcus epidermidis NCIM 5270 after 12 hrs by serial dilution method; type: functional, organism-based; conditions: NCIM 5270, 12 h
[4] = system: Mycobacterium tuberculosis; assay: Antitubercular activity against dormant stage of Mycobacterium tuberculosis H37Ra ATCC 25177 after 12 days by XRMA; type: functional, organism-based; conditions: H37Ra ATCC 25177, 288 h
[5] = system: Mycobacterium tuberculosis; assay: Antitubercular activity against active stage of Mycobacterium tuberculosis H37Ra ATCC 25177 after 8 days by XRMA; type: functional, organism-based; conditions: H37Ra ATCC 25177, 192 h
Staphylococcus aureus [6] = assay: Disruption of cell wall in Staphylococcus aureus NCIM 2010 at MIC after 60 mins by transmission electron microscopic method; type: functional, organism-based
Escherichia coli [7] = assay: Disruption of cell wall in Escherichia coli NCIM 2688 at MIC after 60 mins by transmission electron microscopic method; type: functional, organism-based
[8] = Cytotoxicity against human HeLa cells assessed as cell viability at 1 to 10 uM after 24 hrs by MTT assay relative to control; type: cell-based; conditions: read-out: Activity
Staphylococcus aureus [9] = assay: Antibacterial activity against Staphylococcus aureus NCIM 2010 assessed as decrease in bacterial viability at 10 ug/ml after 4 hrs by SYTO9/propidium iodide staining-based fluorescence microscopic method; type: functional, organism-based
[10] = system: Mycobacterium tuberculosis; assay: Disruption of cell wall in dormant stage of Mycobacterium tuberculosis H37Ra ATCC 25177 at MIC after 60 mins by transmission electron microscopic method; type: functional, organism-based
[11] = system: Mycobacterium tuberculosis; assay: Disruption of cell wall in active stage of Mycobacterium tuberculosis H37Ra ATCC 25177 at MIC after 60 mins by transmission electron microscopic method; type: functional, organism-based
Erythrocyte = assay: Hemolytic activity in human RBC at 1 to 40 uM after 1 hr; type: ADME, cell-based
[12] = Drug degradation assessed as bovine pancreas chymotrypsin-mediated compound hydrolysis by measuring remaining compound levels at 10 mM measured at 0.5 hrs by RP-HPLC method; type: ADME, Bos taurus; conditions: cattle, read-out: Stability
[13] = Drug degradation assessed as bovine pancreas chymotrypsin-mediated compound hydrolysis by measuring remaining compound levels at 10 mM measured at 1 hr by RP-HPLC method; type: ADME, Bos taurus; conditions: cattle, read-out: Stability
[14] = Drug degradation assessed as bovine pancreas chymotrypsin-mediated compound hydrolysis by measuring remaining compound levels at 10 mM measured at 2 hrs by RP-HPLC method; type: ADME, Bos taurus; conditions: cattle, read-out: Stability
[15] = Drug degradation assessed as bovine pancreas chymotrypsin-mediated compound hydrolysis by measuring remaining compound levels at 10 mM measured at 4 hrs by RP-HPLC method; type: ADME, Bos taurus; conditions: cattle, read-out: Stability
[16] = Drug degradation assessed as bovine pancreas chymotrypsin-mediated compound hydrolysis by measuring remaining compound levels at 10 mM measured at 8 hrs by RP-HPLC method; type: ADME, Bos taurus; conditions: cattle, read-out: Stability
[17] = Drug degradation assessed as bovine pancreas chymotrypsin-mediated compound hydrolysis by measuring remaining compound levels at 10 mM measured at 12 hrs by RP-HPLC method; type: ADME, Bos taurus; conditions: cattle, read-out: Stability
[18] = Drug degradation assessed as bovine pancreas chymotrypsin-mediated compound hydrolysis by measuring remaining compound levels at 10 mM measured at 18 hrs by RP-HPLC method; type: ADME, Bos taurus; conditions: cattle, read-out: Stability
[19] = Drug degradation assessed as bovine pancreas chymotrypsin-mediated compound hydrolysis by measuring remaining compound levels at 10 mM measured at 24 hrs by RP-HPLC method; type: ADME, Bos taurus; conditions: cattle, read-out: Stability
[20] = Drug degradation assessed as bovine pancreas chymotrypsin-mediated compound hydrolysis by measuring compound half life at 10 mM by RP-HPLC method; type: ADME, Bos taurus; conditions: cattle
[21] = Drug degradation assessed as pepsin (unknown origin)-mediated compound hydrolysis by measuring remaining compound levels at 0.5 hrs by RP-HPLC method; type: ADME; conditions: human, read-out: Stability
[22] = Drug degradation assessed as pepsin (unknown origin)-mediated compound hydrolysis by measuring remaining compound levels at 1 hr by RP-HPLC method; type: ADME; conditions: human, read-out: Stability
[23] = Drug degradation assessed as pepsin (unknown origin)-mediated compound hydrolysis by measuring remaining compound levels at 2 hrs by RP-HPLC method; type: ADME; conditions: human, read-out: Stability
[24] = Drug degradation assessed as pepsin (unknown origin)-mediated compound hydrolysis by measuring remaining compound levels at 4 hrs by RP-HPLC method; type: ADME; conditions: human, read-out: Stability
[25] = Drug degradation assessed as pepsin (unknown origin)-mediated compound hydrolysis by measuring remaining compound levels at 8 hrs by RP-HPLC method; type: ADME; conditions: human, read-out: Stability
[26] = Drug degradation assessed as pepsin (unknown origin)-mediated compound hydrolysis by measuring remaining compound levels at 12 hrs by RP-HPLC method; type: ADME; conditions: human, read-out: Stability
[27] = Drug degradation assessed as pepsin (unknown origin)-mediated compound hydrolysis by measuring remaining compound levels at 18 hrs by RP-HPLC method; type: ADME; conditions: human, read-out: Stability
[28] = Drug degradation assessed as pepsin (unknown origin)-mediated compound hydrolysis by measuring remaining compound levels at 24 hrs by RP-HPLC method; type: ADME; conditions: human, read-out: Stability

CC(=O)N[C@@H](Cc1ccccc1)C(=O)NCC(=O)N[C@@H](CCCNC(=N)N)C(=O)N[C@@H](CCCCN)C(=O)N[C@@H](CCCCN)C(=O)N[C@@H](CCCNC(=N)N)C(=O)N[C@@H](CCCNC(=N)N)C(=O)N[C@@H](CCC(N)=O)C(=O)N[C@@H](CCCNC(=N)N)C(=O)N[C@@H](CCCNC(=N)N)C(=O)N[C@H]1C[C@@H](C(=O)NCCC(N)=O)N(CCCNC(=N)N)C1 (Ac-FGRKKRRQRR[Pro(N-(CH2)3Gua,cis-4-NH-)][βAla]-NH2)
IC50 (Escherichia coli [1]): 8 nM | MIC (Escherichia coli [1]): 5.71 µM (≈ 9.77 µg/mL) | IC50 (Pseudomonas aeruginosa): 9.3 nM | MIC (Pseudomonas aeruginosa): 3.35 µM (≈ 5.73 µg/mL) | IC50 (Enterobacter sp.): 13 nM | MIC (Enterobacter sp.): 18.9 µM (≈ 32.3 µg/mL) | IC50 (Bacillus subtilis): 9.3 nM | MIC (Bacillus subtilis): 3.56 µM (≈ 6.09 µg/mL) | IC50 (Staphylococcus aureus [2]): 7 nM | MIC (Staphylococcus aureus [2]): 8.47 µM (≈ 14.5 µg/mL) | IC50 [3]: 10 nM | MIC [3]: 4.92 µM (≈ 8.42 µg/mL) | IC50 [4]: 1970 nM | MIC [4]: 18.4 µM (≈ 31.5 µg/mL) | IC50 [5]: 2420 nM | MIC [5]: 27.6 µM (≈ 47.2 µg/mL) | Activity (Staphylococcus aureus [6]): Active | Activity (Escherichia coli [7]): Active | viability at 24 h, up to 10 µM [8]: ≥ 80%

CC(=O)N[C@@H](Cc1ccccc1)C(=O)NCC(=O)N[C@H]1C[C@@H](C(=O)N[C@@H](CCCCN)C(=O)N[C@@H](CCCCN)C(=O)N[C@@H](CCCNC(=N)N)C(=O)N[C@H]2C[C@@H](C(=O)N[C@@H](CCC(N)=O)C(=O)N[C@H]3C[C@@H](C(=O)N[C@@H](CCCNC(=N)N)C(=O)N[C@H]4C[C@@H](C(=O)NCCC(N)=O)N(CCCNC(=N)N)C4)N(CCCNC(=N)N)C3)N(CCCNC(=N)N)C2)N(CCCNC(=N)N)C1
IC50 (Escherichia coli [1]): 5.3 nM | MIC (Escherichia coli [1]): 1.12 µM (≈ 2.1 µg/mL) | IC50 (Pseudomonas aeruginosa): 4.2 nM | MIC (Pseudomonas aeruginosa): 0.61 µM (≈ 1.14 µg/mL) | IC50 (Enterobacter sp.): 4.2 nM | MIC (Enterobacter sp.): 1.35 µM (≈ 2.53 µg/mL) | IC50 (Bacillus subtilis): 3.7 nM | MIC (Bacillus subtilis): 0.71 µM (≈ 1.33 µg/mL) | IC50 (Staphylococcus aureus [2]): 6.4 nM | MIC (Staphylococcus aureus [2]): 1.26 µM (≈ 2.36 µg/mL) | IC50 [3]: 4.2 nM | MIC [3]: 1.12 µM (≈ 2.1 µg/mL) | IC50 [4]: 3700 nM | MIC [4]: 36.3 µM (≈ 68.1 µg/mL) | IC50 [5]: 6200 nM | MIC [5]: 43.9 µM (≈ 82.4 µg/mL) | Activity (Staphylococcus aureus [9]): Active | Activity (Staphylococcus aureus [6]): Active | Activity (Escherichia coli [7]): Active | Activity [10]: Active | Activity [11]: Active | viability at 24 h, up to 10 µM [8]: ≥ 80% | Activity (Erythrocyte): Non-Toxic | remaining at 0.5 h, 10000 µM [12]: 100% | remaining at 1 h, 10000 µM [13]: 100% | remaining at 2 h, 10000 µM [14]: 100% | remaining at 4 h, 10000 µM [15]: 100% | remaining at 8 h, 10000 µM [16]: 100% | remaining at 12 h, 10000 µM [17]: 100% | remaining at 18 h, 10000 µM [18]: 100% | remaining at 24 h, 10000 µM [19]: 100% | half-life at 10000 µM [20]: 16 h | remaining at 0.5 h [21]: 100% | remaining at 1 h [22]: 100% | remaining at 2 h [23]: 100% | remaining at 4 h [24]: 100% | remaining at 8 h [25]: 100% | remaining at 12 h [26]: 100% | remaining at 18 h [27]: 100% | remaining at 24 h [28]: 100%
